Assay results reported in publication PMC7753040, “Discovery of a Potent RIPK3 Inhibitor for the Amelioration of Necroptosis-Associated Inflammatory Injury” (Frontiers in Cell and Developmental Biology, 2020).

Tested on: HeLa-MLKL (1–190) cells
Test: MLKL polymerization-induced necroptosis in HeLa-MLKL (1-190) cells (AP20187)
Assay type: cell-based, human
Conditions: doxycycline 1 μg/ml 24 h, 2 h pretreatment, AP20187 60 nM 24 h
Source text: Human colon cancer HT-29 and mouse fibrosarcoma L929 cells were from ATCC. Mouse embryonic fibroblasts (MEF), HT-29 cells stably expressing RIPK3-shRNA and shRNA resistant scramble Flag-tagged RIPK3 (W46), and NIH3T3 cell line stably expressing RIPK3 fused to mutant FK506-binding protein (NIH3T3-RIPK3) were kindly provided by Dr. Xiaodong Wang [National Institute of Biological Sciences (NIBS), Beijing]. HeLa-MLKL (1-190) cell line was a gift from Dr. Zhigao Wang (University of Texas Southwestern Medical Center at Dallas). These cells were cultured in Dulbecco’s modified Eagle’s medium (Hyclone) supplemeted with 10% fetal bovine serum (Invitrogen) and 2 mM L-glutamine (Invitrogen) in a humidified incubator at 37°C and 5% CO2. […]
Cells were seeded in 96-well plates and then treated as indicated. The cell viability was determined by assessment of ATP levels using the CellTiter-Glo Luminescent Cell Viability Assay kit following the manufacture’s instructions (Promega). Luminescence was calculated with SpectraMax i3x (Molecular Devices).
In vitro kinase activity assays using recombinant RIPK3 and RIPK1 were performed as described in the section “Materials and Methods.” Data represent mean value ± standard deviation. […] Cell viability was determined by measuring ATP levels. […] Cell viability was determined by measuring ATP levels. […]

COc1nccnc1NS(=O)(=O)c1ccc(NC(=O)/C=C/c2ccc([N+](=O)[O-])s2)cc1 [necrosulfonamide, reference compound]
polymerized MLKL-induced necroptosis: blocked
